From patent US20230150986A1, “ANTAGONISTS OF THE MUSCARINIC ACETYLCHOLINE RECEPTOR M4” (Vanderbilt University, priority 2019, published 2023)
pIC50: −log10 of the molar value.

Target: T1, Human M4 (Homo sapiens, UniProt P08173)
T1 construct: Human or rat M4 cDNA, along with the chimeric G protein Gq,5, were transfected into Chinese hamster ovary (CHO-K1) cells; expressed in transfected cells; host or cells: CHO-K1 (M4/Gqi5/CHO)
T1 sequence (P08173 1-479): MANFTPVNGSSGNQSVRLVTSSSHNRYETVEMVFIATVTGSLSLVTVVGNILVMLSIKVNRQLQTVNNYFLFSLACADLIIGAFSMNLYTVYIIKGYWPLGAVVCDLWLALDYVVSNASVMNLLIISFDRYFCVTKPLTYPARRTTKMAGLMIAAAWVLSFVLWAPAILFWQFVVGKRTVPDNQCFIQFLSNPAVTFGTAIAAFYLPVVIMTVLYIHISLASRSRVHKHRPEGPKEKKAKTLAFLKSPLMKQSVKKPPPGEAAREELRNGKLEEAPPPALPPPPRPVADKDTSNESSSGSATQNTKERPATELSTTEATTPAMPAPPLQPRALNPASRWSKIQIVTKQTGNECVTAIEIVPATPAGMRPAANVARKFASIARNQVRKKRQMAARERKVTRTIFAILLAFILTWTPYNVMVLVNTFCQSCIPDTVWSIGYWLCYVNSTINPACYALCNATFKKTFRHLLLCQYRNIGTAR
Test: mAChR M4 cell-based functional assay (calcium flux, decrease of EC80 acetylcholine response)
Settings: for Human M4 Emin: % ACh maximum at 30 μM; for pIC50: CHO-K1 cells with human M4 and Gqi5, EC80 acetylcholine
How it was run: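 CHO-K1 cells stably co-expressing M4 with chimeric Gqi5, loaded with Fluo-4 AM for 50 min at 37 °C; compounds added as 10-point 1:3 curves, then acetylcholine at EC20 (143 s) and EC80 (268 s). Calcium read by FDSS fluorescence ratio; IC50 from four-parameter fit of decrease in EC80 acetylcholine response.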

| SMILES | Human M4 Emin [%] | pIC50 |
| --- | --- | --- |
| Fc1cc(F)c(F)c(-c2ccc(N[C@H]3C[C@@H]4CN(CC5CCOCC5)C[C@@H]4C3)nn2)c1 [Compound 1, (3aR,5s,6aS)-2-((tetrahydro-2H-pyran-4-yl)methyl)-N-(6-(2,3,5-trifluorophenyl)pyridazin-3-yl)octahydrocyclopenta[c]pyrrol-5-amine] | 4 | 7.98 |
| Fc1cc(F)c(F)c(-c2ccc(N[C@H]3C[C@@H]4CN(Cc5ccccn5)C[C@@H]4C3)nn2)c1 [Compound 2, (3aR,5s,6aS)-2-(pyridin-2-ylmethyl)-N-(6-(2,3,5-trifluorophenyl)pyridazin-3-yl)octahydrocyclopenta[c]pyrrol-5-amine] | 4 | 7.68 |
